Consider 15 compounds from ChEMBL document CHEMBL1123140, “Acylamino boronic acids and difluoroborane analogues of amino acids: potent inhibitors of chymotrypsin and elastase” (J Med Chem, 1985).

Chain of Chymotrypsinogen B (P17538 34-164 limits assumed, other chains not shown): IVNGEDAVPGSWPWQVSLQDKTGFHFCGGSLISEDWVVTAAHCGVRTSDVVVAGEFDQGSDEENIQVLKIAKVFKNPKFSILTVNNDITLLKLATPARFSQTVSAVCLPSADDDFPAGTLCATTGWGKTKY
Chain of Chymotrypsinogen B (P17538 167-263 limits assumed, other chains not shown): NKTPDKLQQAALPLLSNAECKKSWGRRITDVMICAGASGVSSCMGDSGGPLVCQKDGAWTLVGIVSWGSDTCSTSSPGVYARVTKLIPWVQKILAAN

The first test addresses Chymotrypsinogen B (Homo sapiens, UniProt P17538). Kind of test: Competitive inhibition of alpha-chymotrypsin.
For `O=C(NC(Cc1ccccc1)B(F)F)c1ccccc1` (stereo not given), the Ki (as a rule, the dissociation constant of the complex between target and ligand, obtained from inhibition or displacement) was 650 nM.
`CC(=O)N[C@@H](Cc1ccccc1)B(F)F` displayed a Ki of 1700 nM.
Compound `CC(=O)NC(Cc1ccccc1)B(F)F` (stereo not given) registered a Ki of 7400 nM.
In turn, `CC(=O)N[C@@H](Cc1ccccc1)B(O)O` displayed a Ki of 2100 nM.
With `O=C(N[C@@H](Cc1ccccc1)B(O)O)c1ccccc1`, the Ki is 360 nM.
`O=C(NC(Cc1ccccc1)B(O)O)c1ccccc1` (stereo not given) came in with a Ki of 650 nM.
In the case of `O=C(N[C@@H](Cc1ccccc1)B(F)F)c1ccccc1`, the Ki amounted to 270 nM.
On the same count and under the same terms, in the case of `O=C(NC(B(F)F)c1ccccc1)c1ccccc1` (stereo not given) it was 5000 nM; in that of `CC(=O)NC(Cc1ccccc1)B(O)O` (stereo not given), 6500 nM; in that of `CC(NC(=O)OCc1ccccc1)C(=O)NC(B(F)F)c1ccccc1` (stereo not given), 2000 nM.

Biological target in another test: not listed separately
Kind of test: Competitive inhibition of porcine elastase by the compound was evaluated. Further details: species or system Sus scrofa.
In turn, `CC[C@H](C)[C@H](NC(=O)C(C)NC(=O)OCc1ccccc1)B(F)F` (stereo not given in full) displayed a Ki of 100 nM.
With `CC[C@H](C)[C@H](NC(=O)C(C)NC(=O)OCc1ccccc1)B(O)O` (stereo not given in full), the Ki amounted to 120 nM.
Consider `CC(NC(=O)OCc1ccccc1)C(=O)N[C@@H](C)B(F)F` (stereo not given in full), for which the affinity corresponds to a Ki of 34500 nM.
Still for that read-out and setting: under `CC(NC(=O)OCc1ccccc1)C(=O)N[C@H](B(O)O)C(C)C` (stereo not given in full) stands 1100 nM; under `CC(NC(=O)OCc1ccccc1)C(=O)N[C@H](B(F)F)C(C)C` (stereo not given in full), 1000 nM.
